In one assay the test system is CT26 tumor-bearing mice. The assay can be described thus: CT26 tumor model, UNO + anti-mPD-1 + CpG-B. In kind it is in vivo, mouse. The procedure: Preparation of cancer cells for injection—Mouse colon carcinoma CT26.WT cells (ATCC, Cat no. CRL-2638) suspended in Hanks' Balanced Salt Solution (HBSS) (Biological Industries, Israel), at a concentration of 5.0×10^6 cells/ml, were freshly prepared on the day of cancer model induction. Cells were grown to 70% confluency and were harvested using trypsin (Biological Industries, Israel), and counted using a cell counter device. The cells were then centrifuged at 1,200 rpm (241×g) for 8 minutes, and the pellet was re-suspended in ice cold HBSS at 5.0×10^6 in 1 ml (5.0×10^5 cells in 100 μl solution). Cell viability was >90% as determined by trypan blue staining prior to inoculation to mice. At the point of inoculation, cells were at passage 8 at most.
Inoculation of CT26 cancer cells to mice—100 μl/mouse of the_CT26 cancer cells suspension (concentration of 5.0×10^6 cells/ml) were inoculated subcutaneously (s.c.) to the right flank of male BALB/c mice, which were 10 weeks of age (Envigo, the Netherlands). Five days later, CT26 cells at the same dose were inoculated s.c. to the left flank of each mouse. Ten days post primary tumor inoculation tumor-bearing mice were divided into the following groups (day 0) as depicted in Table 2 below and treated according to the timeline shown in FIG. 20:
Mice were followed up for totally 52 days. Tumor take was monitored by palpation of the flank and tumor growth was monitored by measurement of the tumor dimensions using a digital caliper. Mice were sacrificed and excluded from the study if their total tumor volume was >1500 mm^3 or their distress scoring >12 as was accepted according to the IACUC IL-2112-105-5.
UNO treatment—On the day of treatment, mice were anesthetized by an intraperitoneal (i.p.) injection of 100 mg/kg ketamine and 10 mg/kg of xylazine hydrochloride solution. Tumor-bearing mice were treated with 50,000 ppm of UNO delivered into the tumor by a 23 G needle over 5 minutes, at 0.2 LPM. After treatment, all mice were warmed and closely monitored until complete recovery was observed. […]

A further assay concerns CT26 cells. Briefly: In vitro UNO exposure of CT26 cells, Annexin V/PI cell death analysis. To be noted: 25,000-100,000 ppm for 10 s, 30 s or 1 min; 24 hours following exposure; dosage and time dependent. The format is cell-based, mouse. The procedure: (§1) Preparation of cells—Mouse colon carcinoma CT26.WT cells (ATCC number: CRL-2638) were grown to a 70-80% confluency and harvested using trypsin. Following, the cells were centrifuged at 1,200 revolutions per minute (rpm)—241 G for 8 minutes, then the pellet was re-suspended in 1 ml of cell media (RPMI—1640 supplemented with 10% FBS and 1% Pen-Strep). The cells were counted using an automated cell counter and a total of 2×10^6 cells were seeded into each […] containing 9 ml cell media. The plates were then placed for 24 hours in an incubator at 37° C., 5% CO2.
(§2) UNO treatment—Following 24 hours of incubation, cell media was removed, and the plate was placed in an acrylic box stationed within an operating chemical fume hood. Prior to the initiation of treatment, the box was exposed to UV for 1 hour to reduce the chances of contamination. The box was closed and sealed with parafilm. A PVC delivery line was placed within a designated hole on the top of the box and lowered until approximately 5 cm within the box. The flowmeter was set to 1 LPM to expose the cells for the durations and concentrations described in Table 3 (control cells were untreated).
(§3) Following treatment, 9 ml of cell media were added to each well and the plate was placed for 24 hours in an incubator at 37° C., 5% CO2.
(§4) Flow cytometry—Cell media was removed to a 50 ml centrifuge tube. […]

The test system of assay [1] is PD-L1 expression on CT26 PI negative cells. The assay can be described thus: In vitro UNO exposure of CT26 cells, PD-L1 expression by flow cytometry. The format is cell-based, mouse. The procedure:
as §1, §2, §3, §4

For the compound `[N]=O` [UNO, nitric oxide], the “Percentage of mice with primary tumor complete regression” value in the assay with CT26 tumor-bearing mice (42 days after treatments (FIG. 16)) was found to be 10%. The “Distant tumor rejection, percentage of mice” value with CT26 tumor-bearing mice (42 days following treatments (FIG. 17)) is given as 11%. In the assay on CT26 tumor-bearing mice (52 days following primary tumor inoculation), the “Percentage of group surviving” value amounted to 10%. Moreover, the “Effect on viability of CT26 cancer cells” value in the assay on CT26 cells is “reduces viability and induces apoptosis and necrosis”. The “PI negative cells expressing PD-L1” value in assay [1] (25,000-100,000 ppm for 10 s, 30 s or 1 min, depending on dosage and time of exposure) is 70-90%. The “Mean fluorescent intensity (MFI) of PD-L1 expression” value in assay [1] (UNO dosage and time dependent manner) is “increased”.

These data come from US20250339462A1, “CANCER TREATMENT USING ULTRA-HIGH CONCENTRATION GASEOUS NITRIC OXIDE AND A CHECKPOINT INHIBITOR” (Beyond Air, Inc., priority 2022, published 2025).
